Where a name gives a salt, the structure may show the parent alone.
Tests used:
[1] = In vitro rat plasma stability assay, formation of tafamidis; type: in vitro ADME; conditions: 37° C., 2 µM test compound
Method in brief: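 Compound at 2 µM incubated in rat plasma at 37 °C, sampled at 0, 10, 30, 60, 120 min or 0, 60, 120, 180, 240 min. Protein precipitated, supernatant analyzed by LC-MS/MS, and percentage formation of tafamidis calculated per time point.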

[2] = In vitro rat liver S9 stability assay, formation of tafamidis; type: in vitro ADME; conditions: rat liver S9, 37° C., 1 µM test compound
Experimental: The test compound was added to liver S9 and incubated at 37° C. in a water bath at a concentration of 1 µM. At each time point (0, 5, 10, 20, 30 and 60 min), stop solution (tolbutamide plus labetalol) was added to precipitate protein and mixed thoroughly. After centrifugation, an aliquot of supernatant was analyzed by LC-MS/MS. The percentage of formation of active agent was calculated at each time point.

[3] = In vivo rat PK: tafamidis in plasma, CSF and brain; set-up: species or system Male Sprague-Dawley (SD) rats; conditions: for Tafamidis CSF/Plasma Ratio over 24 hrs (po): po administration of test compound; for Tafamidis CSF/Plasma Ratio (iv): iv administration of test compound
From the text: For a compound provided herein to be an effective TTR stabilizer drug to halt and/or prevent the ocular and cerebral TTR amyloid deposition TTR amyloidosis, it has to be able to penetrate into the brain and CSF (surrogate for eye penetration) and deliver a sufficient amount of TTR stabilizer to stop TTR dissociation. A pharmacokinetic study in rat was used to evaluate the compounds. Male Sprague-Dawley (SD) rats (200-220 g weight) were acclimated for at least 2 to 3 days before being placed on study. All animals had access to certified rodent diet and water at libitum. Appropriate amount of the test compound was accurately weighed and mixed with appropriate volume of vehicle (such as DMSO/sterile water for iv dosing or 0.5% methylcellulose homogenous suspension or solution for oral administration or as a solution in a mixture NMP/PEG400/solutol/water) to administer a dose of 2, 5 or 10 mg/kg. For IV dosing the test compound was administered via tail vein or indwelling cannula. For oral dosing, the test compound was administered by oral gavage. Blood and CSF samples were collected at selected timepoints. Blood collection was performed from saphenous vein or tail vein of each animal into polypropylene tubes at each timepoint. All blood samples were transferred into EDTA-K2 tubes and centrifuged for 15 minutes at 4° C. for plasma collection. Plasma samples were kept at -80° C. until LC/MSMS analysis. CSF was collected from cisterna magna at each timepoint and quick frozen over dry ice and kept at -80° C. until LC/MSMS analysis. Brains were harvested immediately after the terminal bleeding (~ 24 hrs post dosing). The blood of the brain was perfused with normal saline. The brain was quickly picked and placed into centrifuge tube. The weight of brain samples was recorded. 4-Fold homogenization solution (MeOH/15 mM PBS (1:2)) was added into the tube according to the weighed samples. The brain was homogenized using a Polytron (3 strokes or more until homogenous, each 30 seconds) on wet ice. The samples were quick frozen over dry ice and kept at -80° C. until LC/MSMS analysis. Using a LC-MSMS method for the quantitative determination of test compound in biological matrixes, amount of test compound and active agent were measured in plasma and CSF at selected timepoints post-dosing and in brain at 24 hrs post dosing. Plasma concentration versus time data was analyzed by non-compartmental approaches using the Phoenix WinNonlin 6.3 software program. As reference, an oral dose of 2 mg/kg of tafamidis gave a CSF to plasma ratio over 24 hrs around 0.01 and a brain to plasma ratio at 24 hrs around 0.02.

SMILES	Formation of tafamidis at 120 min [1]	Formation of tafamidis at 60 min [2]	Tafamidis CSF/Plasma Ratio over 24 hrs (po) [3]	Tafamidis CSF/Plasma Ratio (iv) [3]
CC(OC(=O)c1ccc2nc(-c3cc(Cl)cc(Cl)c3)oc2c1)c1ccn(C)n1 (centres unmarked) [Compound 160]	C (C is ≥50 to <75%)	C (C is ≥50 to <75%)	A (A is < 0.015)	
O=C(OCc1ncccn1)c1ccc2nc(-c3cc(Cl)cc(Cl)c3)oc2c1 [Compound 102]	B (B is ≥25 to <50%)	C (C is ≥50 to <75%)	A (A is < 0.015)	
CCN(CC)CCCOC(=O)c1ccc2nc(-c3cc(Cl)cc(Cl)c3)oc2c1 [Compound 38, 3-(diethylamino)propyl 2-(3,5-dichlorophenyl)benzo[d] oxazole-6-carboxylate]	B (B is ≥25 to <50%)	A (A is <25%)	B (B is ≥0.015 to <0.02)	B (B is ≥0.015 to <0.02)
O=C(NCC(F)F)c1ccc2nc(-c3cc(Cl)cc(Cl)c3)oc2c1 [Compound 66, 2-(3,5-dichlorophenyl)-N-(2,2-difluoroethyl)benzo[d]oxazole-6-carboxamide]	A (A is <25%)	A (A is <25%)	C (C is ≥0.02)	
O=C(OCCc1ncc[nH]1)c1ccc2nc(-c3cc(Cl)cc(Cl)c3)oc2c1 [Compound 153]	B (B is ≥25 to <50%)	B (B is ≥25 to <50%)	B (B is ≥0.015 to <0.02)	
Cn1ccc(COC(=O)c2ccc3nc(-c4cc(Cl)cc(Cl)c4)oc3c2)n1 [Compound 90]	A (A is <25%)	D (D is ≥75%)	A (A is < 0.015)	
CC(Cn1ccnc1)OC(=O)c1ccc2nc(-c3cc(Cl)cc(Cl)c3)oc2c1 (centres unmarked) [Compound 170]	B (B is ≥25 to <50%)	B (B is ≥25 to <50%)	A (A is < 0.015)	
CC(COC(=O)c1ccc2nc(-c3cc(Cl)cc(Cl)c3)oc2c1)CN(C)C (centres unmarked) [Compound 50, 3-(dimethylamino)-2-methylpropyl 2-(3,5-dichlorophenyl) benzo [d] oxazole-6-carboxylate]	A (A is <25%)			A (A is <0.015)
CC(CCN(C)C)OC(=O)c1ccc2nc(-c3cc(Cl)cc(Cl)c3)oc2c1 (centres unmarked) [Compound 49, 4-(dimethylamino)butan-2-yl 2-(3,5-dichlorophenyl)benzo[d] oxazole-6-carboxylate hydrochloride]	C (C is ≥50 to <75%)			C (C is ≥0.02)
CCN(C)CCCOC(=O)c1ccc2nc(-c3cc(Cl)cc(Cl)c3)oc2c1 [Compound 48, 3-(ethyl(methyl)amino)propyl 2-(3,5-dichlorophenyl)benzo[d] oxazole-6-carboxylate hydrochloride]	B (B is ≥25 to <50%)			A (A is <0.015)
N[C@@H](Cc1ccc(OC(=O)c2ccc3nc(-c4cc(Cl)cc(Cl)c4)oc3c2)cc1)C(=O)O [Compound 23, (S)-2-amino-3-(4-((2-(3,5-dichlorophenyl)benzo[d]oxazole-6-carbonyl)oxy)phenyl)propanoic acid hydrochloride]	A (A is <25%)			B (B is ≥0.015 to <0.02)

Next, values leading:

Formation of tafamidis at 120 min [1]	Formation of tafamidis at 60 min [2]	Tafamidis CSF/Plasma Ratio over 24 hrs (po) [3]	Tafamidis CSF/Plasma Ratio (iv) [3]	SMILES
D (D is ≥75%)	C (C is ≥50 to <75%)	B (B is ≥0.015 to <0.02)		O=C(OC1CCn2cncc21)c1ccc2nc(-c3cc(Cl)cc(Cl)c3)oc2c1 (centres unmarked) [Compound 156, 6,7-dihydro-5H-pyrrolo[1,2-c]imidazol-7-yl 2-(3,5-dichlorophenyl)-benzo[d]oxazole-6-carboxylate]
D (D is ≥75%)	A (A is <25%)	A (A is < 0.015)		CN1CC[C@H](OC(=O)c2ccc3nc(-c4cc(Cl)cc(Cl)c4)oc3c2)C1 [Compound 58, (S)-1-methylpyrrolidin-3-yl 2-(3,5-dichlorophenyl)benzo[d] oxazole-6-carboxylate hydrochloride]
A (A is <25%)	A (A is <25%)		B (B is ≥0.015 to <0.02)	CN1CCC(COC(=O)c2ccc3nc(-c4cc(Cl)cc(Cl)c4)oc3c2)C1 (centres unmarked) [Compound 60, (1-methylpyrrolidin-3-yl)methyl 2-(3,5-dichlorophenyl)benzo [d] oxazole-6-carboxylate]
B (B is ≥25 to <50%)	C (C is ≥50 to <75%)	A (A is < 0.015)		O=C(OCCN1CCS(=O)(=O)CC1)c1ccc2nc(-c3cc(Cl)cc(Cl)c3)oc2c1 [Compound 79]
A (A is <25%)	D (D is ≥75%)	B (B is ≥0.015 to <0.02)		O=C(OC1CCN(CC(F)(F)F)C1)c1ccc2nc(-c3cc(Cl)cc(Cl)c3)oc2c1 (centres unmarked) [Compound 151]
C (C is ≥50 to <75%)	A (A is <25%)	C (C is ≥0.02)		CCN1CCC(OC(=O)c2ccc3nc(-c4cc(Cl)cc(Cl)c4)oc3c2)C1 (centres unmarked) [Compound 74]
A (A is <25%)	A (A is <25%)	B (B is ≥0.015 to <0.02)		O=C(c1ccc2nc(-c3cc(Cl)cc(Cl)c3)oc2c1)N1CCNCC1 [Compound 145]
B (B is ≥25 to <50%)	B (B is ≥25 to <50%)		A (A is <0.015)	O=C(OCCN1CCCC1)c1ccc2nc(-c3cc(Cl)cc(Cl)c3)oc2c1 [Compound 37, 2-(pyrrolidin-1-yl)ethyl 2-(3,5-dichlorophenyl)benzo[d]oxazole-6-carboxylate]
C (C is ≥50 to <75%)	B (B is ≥25 to <50%)	A (A is < 0.015)		CCN1CCCC(OC(=O)c2ccc3nc(-c4cc(Cl)cc(Cl)c4)oc3c2)C1 (centres unmarked) [Compound 163]
A (A is <25%)	A (A is <25%)		B (B is ≥0.015 to <0.02)	O=C(OCCCN1CCC1)c1ccc2nc(-c3cc(Cl)cc(Cl)c3)oc2c1 [Compound 39, 3-(azetidin-1-yl)propyl 2-(3,5-dichlorophenyl)benzo[d] oxazole-6-carboxylate]
C (C is ≥50 to <75%)			A (A is <0.015)	O=C(OCCN1CCC1)c1ccc2nc(-c3cc(Cl)cc(Cl)c3)oc2c1 [Compound 36, 2-(azetidin-1-yl)ethyl 2-(3,5-dichlorophenyl)benzo[d]oxazole-6-carboxylate]
A (A is <25%)	A (A is <25%)	A (A is < 0.015)		CNC(=O)c1ccc2nc(-c3cc(Cl)cc(Cl)c3)oc2c1 [Compound 87]
A (A is <25%)	A (A is <25%)	B (B is ≥0.015 to <0.02)	B (B is ≥0.015 to <0.02)	O=C(OC1CCNCC1)c1ccc2nc(-c3cc(Cl)cc(Cl)c3)oc2c1 [Compound 13, hydrochloride]
A (A is <25%)			B (B is ≥0.015 to <0.02)	CN1CCC(OC(=O)c2ccc3nc(-c4cc(Cl)cc(Cl)c4)oc3c2)C(F)(F)C1 (centres unmarked) [Compound 14, 3,3-difluoro-1-methylpiperidin-4-yl 2-(3,5-dichlorophenyl) benzo [d]oxazole-6-carboxylate]

Reference: patent US20230287021A1, “COMPOUNDS, COMPOSITIONS AND METHODS FOR STABILIZING TRANSTHYRETIN AND INHIBITING TRANSTHYRETIN MISFOLDING” (Protego Biopharma, Inc., priority 2020, published 2023)
